Experimental data taken from patent publication US20040171062A1, “Methods for the design of molecular scaffolds and ligands” (Plexxikon, Inc., priority 2002, published 2004).

Assays:
Type in all cases: biochemical
[1] = target: T1, Pyk2 kinase domain residues 419 to 691 (Homo sapiens, UniProt Q14289); assay: Pyk2 kinase domain AlphaScreen activity and inhibition by ATP analogs; conditions: Pyk2 at 8 ng/well, ATP at 10 uM; for IC50: fit y = ((Vmax*x^n)/(K^n + x^n)) + Y2; for effect on PYK2: in the concentration tested
T1 construct: PYK2 kinase domain I420-M691; hexa-histidine (thrombin-cleavable, pET15S; leaves GSHM before I420) (N, cleaved yes); made in house; host or cells: E. coli BL21 (DE3) pLysS
Protocol: Inhibition by ATP analogs was tested with Pyk2 at 8 ng/well and ATP at 10 uM.

[2] = target: T1, Pyk2 kinase domain residues 419 to 691; assay: as above
PIM-1 = target: T2, PIM-1 (Homo sapiens, UniProt P11309); assay: PIM-1 kinase activity assay (MBP substrate, 33P-ATP FlashPlate)
T2 construct: expressing PIM-1 kinase domain (29-313) was suspended; made in house; host or cells: E. coli BL21(DE3)pLysS
Protocol: Inhibitory or exhitory activity of compounds binding to PIM-1 was determined using a kinase assay.
An assay for kinase activity that can be used for PIM kinases, e.g., PIM-1, can be performed according to the following procedure using purified kinase using myelin basic protein (MBP) as substrate.
Coat scintillation plate suitable for radioactivity counting (e.g., FlashPlate from Perkin-Elmer, such as the SMP200(basic)) with kinase+MBP mix (final 100 ng+300 ng/well) at 90-μL/well in kinase buffer. Add compounds at 1 μL/well from 10 mM stock in DMSO. Positive control wells are added with 1 μL of DMSO. Negative control wells are added with 2 μL of EDTA stock solution. ATP solution (10 μL) is added to each well to provide a final concentration of cold ATP is 2 μM, and 50 nCi ATPγ[^33P]. The plate is shaken briefly, and a count is taken to initiate count (IC) using an apparatus adapted for counting with the plate selected, e.g., Perkin-Elmer Trilux. Store the plate at 37° C. for 4 hrs, then count again to provide final count (FC).
Net 33P incorporation (NI) is calculated as: NI=FC−IC.
The effect of the present of a test compound can then be calculated as the percent of the positive control as: % PC=[(NI−NC)/(PC−NC)]×100, where NC is the net incorporation for the negative control, and PC is the net incorporation for the positive control. […]

Pyk2 = target: T3, Pyk2 (Homo sapiens, UniProt Q14289); assay: Pyk-2 inhibitory activity (kinase ELISA, poly(Glu:Tyr))
T3 construct: the Pyk2 was the kinase domain-(His)6 fusion; (His)6 (C); made in house; host or cells: E. coli BL21
T3 sequence (Q14289 425-683 limits assumed): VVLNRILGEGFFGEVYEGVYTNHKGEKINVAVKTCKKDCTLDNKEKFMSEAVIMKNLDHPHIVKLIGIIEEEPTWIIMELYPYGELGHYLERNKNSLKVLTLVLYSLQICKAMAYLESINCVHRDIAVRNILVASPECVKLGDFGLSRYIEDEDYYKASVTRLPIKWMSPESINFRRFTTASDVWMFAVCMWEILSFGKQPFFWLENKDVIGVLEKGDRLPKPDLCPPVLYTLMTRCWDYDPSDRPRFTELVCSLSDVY
Protocol: Csk (and Pyk2 in a separate assay) were mixed with poly(Glu:Tyr) and coated on an ELISA plate in kinase buffer. Test compounds were added to each well at a concentration of about 200 uM. ATP was added to a final concentration of 2 uM. After 1 hour of incubation at 37 C, phospho-Tyr was detected with ELISA solution. Color development of TMB was measured at 650 nm. The Csk was the (His)6-kinase domain fusion, and the Pyk2 was the kinase domain-(His)6 fusion, both produced in BL21 E. coli. The kinase buffer was 50 mM HEPES, pH 7.2 with 100 uM of manganese. The ELISA solution was 1:1000 at 5% milk.

T1 sequence (Q14289 420-691): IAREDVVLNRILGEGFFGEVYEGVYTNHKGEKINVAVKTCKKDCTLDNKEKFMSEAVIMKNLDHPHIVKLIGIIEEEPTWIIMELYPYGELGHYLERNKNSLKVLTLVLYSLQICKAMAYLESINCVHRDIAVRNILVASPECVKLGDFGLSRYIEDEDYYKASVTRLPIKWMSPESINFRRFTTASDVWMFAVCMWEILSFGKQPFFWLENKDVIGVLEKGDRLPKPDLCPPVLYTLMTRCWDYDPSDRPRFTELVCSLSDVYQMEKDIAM
T2 sequence (P11309 29-313): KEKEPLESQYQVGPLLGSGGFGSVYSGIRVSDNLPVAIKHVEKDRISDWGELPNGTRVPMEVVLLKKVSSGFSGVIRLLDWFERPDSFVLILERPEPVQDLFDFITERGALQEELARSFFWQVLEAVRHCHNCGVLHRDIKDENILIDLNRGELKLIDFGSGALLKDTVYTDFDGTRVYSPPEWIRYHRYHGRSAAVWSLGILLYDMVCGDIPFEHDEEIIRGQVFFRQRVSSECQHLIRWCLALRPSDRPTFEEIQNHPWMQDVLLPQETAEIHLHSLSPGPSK

Nc1ncnc2c1ncn2[C@@H]1O[C@H](COP(=O)(O)OP(=O)(O)O)[C@@H](O)[C@H]1O [ADT]
affinity with Pyk2 [1]: 14 µM
IC50 [1]: 14.9 µM

Nc1ncnc2c1ncn2[C@@H]1O[C@H](COP(=O)(O)OP(=O)(O)CP(=O)(O)O)[C@@H](O)[C@H]1O [AMPPCP]
IC50 [1]: 7690 µM
effect on PYK2 [1]: little effect

Nc1ncnc2c1ncn2C1OC(COP(=O)(O)OP(=O)(O)NP(=O)(O)O)C(O)C1O (centres unmarked) [AMPPNP, 5′-adenylylimidodiphosphate]
IC50 [1]: 18.1 µM

Nc1ncnc2c1ncn2[C@@H]1O[C@H](COP(=O)(O)O)[C@@H](O)[C@H]1O [AMP]
IC50 [1]: 80.2 µM

Nc1ncnc2c1ncn2[C@@H]1O[C@H](COP(=O)(O)OP(=O)(O)OP(O)(O)=S)[C@@H](O)[C@H]1O [ATP-g-S]
affinity with Pyk2 [1]: 14 µM
IC50 [1]: 13.6 µM

Nc1ncnc2c1ncn2[C@@H]1O[C@H](COP(=O)(O)OP(=O)(O)OP(=O)(O)O)[C@@H](O)[C@H]1O [ATP]
K (Pyk2 activity) ([2]; Pyk2 8 ng/well, 384-well plate, fit y = (Vmax*x)/(K + x)): 7.37 µM
Kd ([2]; Pyk2 at 8 ng/well in 384-well plate, AlphaScreen): 7.34 µM

Nc1ncnc2c1ncn2[C@@H]1O[C@H](CO)[C@@H](O)[C@H]1O [Adenosine]
effect on PYK2 [1]: little effect

c1cnc2[nH]ccc2c1 [Formula III, R1=R2=R3=R4=R5=H]
inhibition at 200 µM (PIM-1; at 200 μM concentration): 8%
IC50 (PIM-1; read-out: IC50, inhibitory activity against PIM-1): > 200 µM
IC50 (Pyk2): > 200 µM
